Laboratory results published in patent US20220323425A1, “CO-POTENTIATORS FOR THERAPY OF CYSTIC FIBROSIS CAUSED BY MINIMAL FUNCTION CFTR MUTANTS” (THE REGENTS OF THE UNIVERSITY OF CALIFORNIA, priority 2019, published 2022).
Where two headings read alike, the source gives them in different places.

Columns and labels:
Assay type in all cases: cell-based
[1] = target: N1303K-CFTR (Homo sapiens, UniProt P13569, N1303K); assay: Short-circuit current in FRT cells expressing N1303K-CFTR; parameters: expressed in transfected cells; host or cells: Fischer rat thyroid (FRT) cells; conditions: for EC50 / Relative Vmax (%)*: Table 1B; for EC50: cell line not given; for Relative Vmax (%)*: footnote to * not given; for short-circuit current response when added after VX-770: 20 μM forskolin, 5 μM VX-770, 20 μM test potentiator
Method: (§1) Short-circuit current was measured on cells cultured on permeable supports (Corning) as described (Haggie, 2017; Phuan, 2018). For FRT cells, the basolateral membrane was permeabilized with 250 μg/mL amphotericin B, and experiments were done using a HCO3^−-buffered system (in mM: 120 NaCl, 5 KCl, 1 MgCl2, 1 CaCl2), 5 Hepes, 25 NaHCO3, 10 glucose, pH 7.4) with a basolateral to apical chloride gradient (60 mM NaCl replaced by sodium gluconate in the apical solution). For human airway epithelial cells, symmetrical HCO3^−-buffered solutions (containing 120 mM NaCl) were used. Cells were equilibrated with 95% O2, 5% CO2 and maintained at 37° C. Hemichambers were connected to a DVC-1000 voltage clamp (World Precision Instruments Inc., Sarasota, Fla.) via Ag/AgCl electrodes and 3 M KCl agar bridges for recording of the short-circuit current.
(§2) GraphPad Prism software (GraphPad Inc., San Diego, Calif., USA) was used for statistical analysis. EC50 values were determined by non-linear regression to a single-site inhibition model. Statistical significance was determined using unpaired Student's t test, with P<0.05 considered significant.
Co-potentiator efficacy was initially determined by short-circuit current measurements in FRT cells expressing N1303K-CFTR in the presence of a transepithelial chloride gradient and with permeabilization of the basolateral cell membrane such that measured current directly reports CFTR channel activity. […] We previously defined potentiators as either class I compounds, including VX-770 and GLPG1837, or class II compounds such as the arylsulphonamide-pyrrolopyridine and spiro[piperidine-4,1-pyrido[3,4-b]indole] copotentiators that probably bind at distinct sites on CFTR. N1303K-CFTR expressing FRT cells treated with forskolin and GLPG1837 had similar 2i co-potentiator EC50 of 0.8±0.2 μM (FIG. 7B).

[2] = target: T1, W1282X-CFTR (Homo sapiens, UniProt P13569); assay: Structure-activity testing of co-potentiator analogs in FRT cells expressing W1282X-CFTR; conditions: for Relative Vmax (%)*: 100% Vmax corresponds to 20 μM ASP-11; for EC50: FRT cells expressing W1282X-CFTR
T1 construct: CFTR1281 (the truncation product generated by W1282X-CFTR); expressed in transfected cells
Method: To establish structure-activity relationships, 240 commercially available spiro[piperidine-4,1pyrido[3,4-b]indoles]analogs and 160 pyrazoloquinoline analogs were tested in FRT cells expressing W 1282X-CFTR. FIG. 5A summarizes the structural determinants for activity for the spiro[piperidine-4,1pyrido[3,4-b]indoles] reported in Table 1A (CP-Axxx designations).
High-throughput screening used a semi-automated screening platform (Beckman, Fullerton, Calif.) as described (Haggie, 2017). FRT cells expressing W1282X and YFP were plated in 96-well black-walled, clear-bottom tissue culture plates (Corning) at a density of 20,000 cells/well and grown for 24 h at 37° C. to ˜90% confluency. Cells were treated with 3 μM VX-809 for 24 hours. Cells were then washed twice with PBS, and incubated in 100 μl of PBS containing forskolin (10 μM), VX-770 (15 nM) and test compounds (25 μM) for 10 min prior to assay of CFTR activity. All plates contained wells with positive (5 μM VX-770+20 μM ASP-11) and negative (5 μM VX-770) controls. Assays were done using a BMG Labtech FLUOstar OMEGA plate reader (Cary, N.C.) over 12 s with initial fluorescence intensity recorded for 2 s prior to addition of 100 μl of NaI-substituted PBS (137 mM NaCl replaced with NaI). Initial iodide influx was computed from fluorescence intensity by single exponential regression. […]
as §2

[3] = target: T2, Q1313X-CFTR (Homo sapiens, UniProt P13569); assay: Short-circuit current in FRT cells expressing Q1313X-CFTR; conditions: 20 μM forskolin; for short-circuit current response when added after VX-770: 5 μM VX-770, 25 μM apigenin, others 20 μM
T2 construct: several truncated forms of CFTR resulting from premature termination codons (PTCs) located in NBD2; expressed in transfected cells; host or cells: FRT cells, pIRESpuro3 vector, puromycin-selected clonal lines
Method: as §1, §2

N1303K-CFTR, sequence (P13569 whole entry N1303K): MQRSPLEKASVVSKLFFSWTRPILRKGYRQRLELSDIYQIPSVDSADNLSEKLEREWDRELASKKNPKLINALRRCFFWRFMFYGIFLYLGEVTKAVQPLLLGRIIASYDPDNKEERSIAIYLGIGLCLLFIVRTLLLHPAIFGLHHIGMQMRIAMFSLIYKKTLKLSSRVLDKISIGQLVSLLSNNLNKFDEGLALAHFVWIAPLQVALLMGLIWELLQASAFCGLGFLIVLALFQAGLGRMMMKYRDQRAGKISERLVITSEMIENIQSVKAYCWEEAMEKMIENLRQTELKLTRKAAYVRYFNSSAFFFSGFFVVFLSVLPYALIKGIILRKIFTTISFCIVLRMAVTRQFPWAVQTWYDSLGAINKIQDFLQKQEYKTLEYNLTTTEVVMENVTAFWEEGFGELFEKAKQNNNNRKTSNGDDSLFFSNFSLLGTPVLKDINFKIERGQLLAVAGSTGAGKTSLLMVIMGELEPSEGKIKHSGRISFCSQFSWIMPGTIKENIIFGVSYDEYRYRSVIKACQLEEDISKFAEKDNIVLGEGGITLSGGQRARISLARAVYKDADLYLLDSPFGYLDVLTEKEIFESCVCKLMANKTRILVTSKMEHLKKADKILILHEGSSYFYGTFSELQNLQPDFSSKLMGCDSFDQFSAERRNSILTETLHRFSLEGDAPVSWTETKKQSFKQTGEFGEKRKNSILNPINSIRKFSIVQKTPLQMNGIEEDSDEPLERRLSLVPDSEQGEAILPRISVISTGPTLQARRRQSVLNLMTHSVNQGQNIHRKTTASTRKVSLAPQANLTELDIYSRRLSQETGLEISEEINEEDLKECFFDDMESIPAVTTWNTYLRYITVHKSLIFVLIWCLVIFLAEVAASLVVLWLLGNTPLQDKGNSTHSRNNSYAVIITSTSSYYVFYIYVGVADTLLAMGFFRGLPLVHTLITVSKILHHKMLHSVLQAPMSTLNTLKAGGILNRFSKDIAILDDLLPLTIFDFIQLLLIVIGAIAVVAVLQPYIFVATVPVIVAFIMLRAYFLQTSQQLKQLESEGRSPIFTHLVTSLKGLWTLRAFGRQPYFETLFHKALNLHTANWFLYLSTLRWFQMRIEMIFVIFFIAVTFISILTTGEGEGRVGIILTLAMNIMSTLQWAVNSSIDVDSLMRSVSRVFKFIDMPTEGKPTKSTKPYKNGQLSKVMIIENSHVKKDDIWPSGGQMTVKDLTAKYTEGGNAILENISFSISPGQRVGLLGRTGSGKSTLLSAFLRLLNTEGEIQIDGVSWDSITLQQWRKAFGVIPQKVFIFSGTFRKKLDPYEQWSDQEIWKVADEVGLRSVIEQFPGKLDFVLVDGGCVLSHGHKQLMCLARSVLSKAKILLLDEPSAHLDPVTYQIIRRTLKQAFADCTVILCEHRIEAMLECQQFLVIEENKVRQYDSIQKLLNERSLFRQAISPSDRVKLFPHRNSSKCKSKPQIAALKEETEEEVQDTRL
T1 sequence (P13569 1-1281 limits assumed): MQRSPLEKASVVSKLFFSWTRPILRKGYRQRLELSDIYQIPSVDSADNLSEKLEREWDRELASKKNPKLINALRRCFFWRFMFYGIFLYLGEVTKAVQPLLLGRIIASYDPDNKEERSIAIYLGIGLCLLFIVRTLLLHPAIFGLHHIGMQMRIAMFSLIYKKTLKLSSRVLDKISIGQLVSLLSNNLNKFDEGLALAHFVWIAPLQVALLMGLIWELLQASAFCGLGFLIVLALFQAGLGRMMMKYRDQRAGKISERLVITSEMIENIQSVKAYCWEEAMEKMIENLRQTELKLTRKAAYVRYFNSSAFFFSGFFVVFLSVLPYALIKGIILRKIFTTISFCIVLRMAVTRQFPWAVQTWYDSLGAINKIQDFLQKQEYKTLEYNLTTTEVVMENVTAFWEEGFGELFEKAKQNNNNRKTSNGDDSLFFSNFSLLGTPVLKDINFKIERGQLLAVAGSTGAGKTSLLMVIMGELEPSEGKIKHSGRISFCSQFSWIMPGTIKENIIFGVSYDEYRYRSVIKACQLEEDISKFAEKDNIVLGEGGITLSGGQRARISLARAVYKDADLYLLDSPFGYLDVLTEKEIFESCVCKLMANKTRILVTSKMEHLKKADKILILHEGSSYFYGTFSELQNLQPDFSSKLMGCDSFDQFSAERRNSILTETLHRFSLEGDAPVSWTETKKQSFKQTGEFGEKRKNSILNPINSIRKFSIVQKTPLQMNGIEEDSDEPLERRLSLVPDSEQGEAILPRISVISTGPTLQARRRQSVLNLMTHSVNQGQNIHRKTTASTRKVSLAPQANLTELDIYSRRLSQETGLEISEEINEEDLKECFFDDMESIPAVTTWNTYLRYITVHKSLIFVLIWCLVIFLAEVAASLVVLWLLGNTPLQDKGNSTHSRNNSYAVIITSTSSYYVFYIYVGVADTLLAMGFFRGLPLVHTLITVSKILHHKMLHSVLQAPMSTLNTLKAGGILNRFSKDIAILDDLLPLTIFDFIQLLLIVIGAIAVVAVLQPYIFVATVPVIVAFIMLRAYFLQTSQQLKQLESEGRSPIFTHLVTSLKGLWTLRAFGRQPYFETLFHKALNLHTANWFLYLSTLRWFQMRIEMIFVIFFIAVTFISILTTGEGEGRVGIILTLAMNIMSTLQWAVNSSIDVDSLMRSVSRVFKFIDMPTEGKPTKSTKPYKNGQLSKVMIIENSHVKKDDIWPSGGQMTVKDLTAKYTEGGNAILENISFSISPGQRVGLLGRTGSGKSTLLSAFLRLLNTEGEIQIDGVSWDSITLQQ
T2 sequence (P13569 1-1312 limits assumed): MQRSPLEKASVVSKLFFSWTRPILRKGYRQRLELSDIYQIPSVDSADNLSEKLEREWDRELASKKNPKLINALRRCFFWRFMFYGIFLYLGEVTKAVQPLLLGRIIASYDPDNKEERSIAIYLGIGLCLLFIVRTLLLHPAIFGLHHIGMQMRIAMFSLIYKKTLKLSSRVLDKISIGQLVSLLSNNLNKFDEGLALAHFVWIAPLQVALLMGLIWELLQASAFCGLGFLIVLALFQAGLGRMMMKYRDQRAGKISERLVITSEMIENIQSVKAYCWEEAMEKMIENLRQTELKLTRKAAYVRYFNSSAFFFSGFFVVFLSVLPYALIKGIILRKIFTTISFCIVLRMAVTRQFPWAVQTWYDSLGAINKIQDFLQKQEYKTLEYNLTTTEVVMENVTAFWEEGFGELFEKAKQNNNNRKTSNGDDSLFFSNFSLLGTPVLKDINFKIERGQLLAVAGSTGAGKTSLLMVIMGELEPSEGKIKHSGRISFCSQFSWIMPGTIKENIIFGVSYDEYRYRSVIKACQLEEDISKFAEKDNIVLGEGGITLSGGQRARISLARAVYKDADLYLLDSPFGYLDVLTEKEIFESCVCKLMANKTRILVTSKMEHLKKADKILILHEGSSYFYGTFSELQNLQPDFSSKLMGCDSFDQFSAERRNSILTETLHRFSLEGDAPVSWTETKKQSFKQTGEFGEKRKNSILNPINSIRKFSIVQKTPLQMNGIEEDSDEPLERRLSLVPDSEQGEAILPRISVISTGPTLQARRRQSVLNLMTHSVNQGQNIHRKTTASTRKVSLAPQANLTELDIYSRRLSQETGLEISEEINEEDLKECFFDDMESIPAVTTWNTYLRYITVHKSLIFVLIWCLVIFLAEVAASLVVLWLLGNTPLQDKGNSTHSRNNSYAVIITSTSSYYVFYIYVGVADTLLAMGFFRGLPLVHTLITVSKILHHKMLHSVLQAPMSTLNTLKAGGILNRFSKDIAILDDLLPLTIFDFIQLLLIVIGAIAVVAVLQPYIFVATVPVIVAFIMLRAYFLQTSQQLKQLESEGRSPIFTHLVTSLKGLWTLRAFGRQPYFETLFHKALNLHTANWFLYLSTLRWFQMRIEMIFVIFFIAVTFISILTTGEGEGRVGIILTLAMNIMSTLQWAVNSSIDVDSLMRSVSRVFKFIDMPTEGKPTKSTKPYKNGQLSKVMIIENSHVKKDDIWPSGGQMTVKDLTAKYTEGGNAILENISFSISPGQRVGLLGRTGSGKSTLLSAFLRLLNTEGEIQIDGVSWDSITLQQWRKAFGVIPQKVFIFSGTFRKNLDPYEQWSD

Structure (SMILES) | Relative Vmax (%)* ([2]; Table 1A) [%] | EC50 ([2]; Table 1A, read-out: EC50 (μM))) [µM] | Relative Vmax (%)* ([2]; Table 2) [%] | EC50 ([2]; Table 2, read-out: EC50) [µM] | other results
COc1ccc2[nH]c3c(c2c1)CCNC31CCN(Cc2ccc(F)c(Cl)c2F)CC1 [Compound 1j, 1-(3-Chloro-2,4-difluorobenzyl)-6′-methoxy-2′,3′,4′,9′-tetrahydrospiro[piperidine-4,1′-pyrido[3,4-b]indole]] | – | – | – | – | EC50 [1]: 4.5 µM; Relative Vmax (%)* [1]: 120%
COc1ccc2[nH]c3c(c2c1)CCNC31CCN(Cc2cc(F)c(F)c(F)c2)CC1 [Compound 2d, 6′-Methoxy-1-(3,4,5-trifluorobenzyl)-2′,3′,4′,9′-tetrahydrospiro[piperidine-4,1′-pyrido[3,4-b]indole]] | – | – | – | – | EC50 [1]: 2.6 µM; Relative Vmax (%)* [1]: 121%
COc1ccc2[nH]c3c(c2c1)CCNC31CCN(Cc2c(F)c(F)c(F)c(F)c2F)CC1 [Compound 2e, 6′-Methoxy-1-((perfluorophenyl)methyl)-2′,3′,4′,9′-tetrahydrospiro[piperidine-4,1′-pyrido[3,4-b]indole]] | – | – | – | – | EC50 [1]: 2.1 µM; Relative Vmax (%)* [1]: 134%
COc1ccc2[nH]c3c(c2c1)CCNC31CCN(Cc2ccc(F)c(F)c2F)CC1 [Compound 2g, 6′-Methoxy-1-(2,3,4-trifluorobenzyl)-2′,3′,4′,9′-tetrahydrospiro[piperidine-4,1′-pyrido[3,4-b]indole]] | – | – | – | – | EC50 [1]: 4.1 µM; Relative Vmax (%)* [1]: 100%
Fc1ccc(CN2CCC3(CC2)NCCc2c3[nH]c3ccc(Cl)cc23)c(F)c1 [Compound 5c, 6′-Chloro-1-(2,4-difluorobenzyl)-2′,3′,4′,9′-tetrahydrospiro[piperidine-4,1′-pyrido[3,4-b]indole]] | – | – | – | – | EC50 [1]: 2.5 µM; Relative Vmax (%)* [1]: 89%
COc1ccc2c3c([nH]c2c1)C1(CCN(Cc2ccc(F)cc2F)CC1)NCC3 [Compound 5d, 1-(2,4-Difluorobenzyl)-7′-methoxy-2′,3′,4′,9′-tetrahydrospiro[piperidine-4,1′-pyrido[3,4-b]indole]] | – | – | – | – | EC50 [1]: 2.4 µM; Relative Vmax (%)* [1]: 100%
COc1ccc2[nH]c3c(c2c1)CCNC31CCN(S(C)(=O)=O)CC1 [Compound A145] | 7 | > 30 | – | – | –
CCC(=O)N1CCC2(CC1)NCCc1c2[nH]c2ccc(OC)cc12 [Compound A350] | 7 | > 30 | – | – | –
c1ccc(CN2CCC3(CC2)NCCc2c3[nH]c3ccccc23)cc1 [Compound A357] | 31 | 16 | – | – | –
COc1cccc(CN2CCC3(CC2)NCCc2c3[nH]c3ccccc23)c1 [Compound A534] | 24 | 13 | – | – | –
COc1cccc(CN2CCC3(CC2)c2[nH]c4ccccc4c2CCN3C)c1 [Compound A600] | 4 | > 30 | – | – | –
COc1ccc2[nH]c3c(c2c1)CCNC31CCN(Cc2ccc(F)c(F)c2)CC1 [Compound A662] | 100 | 2.6 | – | – | –
COc1ccc2[nH]c3c(c2c1)CCNC31CCN(Cc2scnc2C)CC1 [Compound A666] | 91 | 5.1 | – | – | –
COc1ccc2[nH]c3c(c2c1)CCNC31CCN(C2CCCCC2)CC1 [Compound A714] | 18 | > 30 | – | – | –
COc1ccc2[nH]c3c(c2c1)CCNC31CCN(C)CC1 [Compound A764] | 6 | > 30 | – | – | –
O=C(c1ccccc1)N1CCC2(CC1)NCCc1c2[nH]c2ccccc12 [Compound A815] | −4 | > 30 | – | – | –
COc1ccc2[nH]c3c(c2c1)CCNC31CCN(C(=O)Cc2ccccc2)CC1 [Compound A956] | 6 | > 30 | – | – | –
CC(C)c1ccc(NC(=O)C(c2ccccc2)N(C)C(=O)Cc2c[nH]c3ccccc23)cc1 (centres unmarked) [Compound P2, N-methyl-N-[2-[[4-(1-methylethyl)phenyl]amino]-2-oxo-1-phenylethyl]-1H-indole-3-acetamide, reference compound] | – | – | – | – | short-circuit current response when added after VX-770 [3]: did not elevate current; short-circuit current response when added after VX-770 [1]: did not further increase current
Cc1cc(C)cc(N(Cc2ccc(Cl)cc2)S(=O)(=O)c2cccn3c(C)nnc23)c1 [W1282Xpot-C01, reference compound] | – | – | – | – | short-circuit current response when added after VX-770 [1]: activated N1303K-CFTR; activation by two Class II potentiators added together ([1]; W1282Xpot-C01 and ASP-11, 20 μM each, no Class I potentiator): little activation
O=c1cc(-c2ccc(O)cc2)oc2cc(O)cc(O)c12 [apigenin] | – | – | – | – | short-circuit current response when added after VX-770 [3]: showed synergy; short-circuit current response when added after GLPG1837 ([3]; 20 μM GLPG1837): showed synergy

Continued, in another order:

Relative Vmax (%)* ([2]; Table 1A) [%] | EC50 ([2]; Table 1A, read-out: EC50 (μM))) [µM] | Relative Vmax (%)* ([2]; Table 2) [%] | EC50 ([2]; Table 2, read-out: EC50) [µM] | Structure (SMILES) | other results
– | – | 1 | > 30 | COc1ccc2cc3c(N)nn(C(=O)c4ccncc4)c3nc2c1 [Compound D003] | –
– | – | 24 | 3.6 | COc1ccc2cc3c(N)nn(C(=O)c4ccc(F)cc4)c3nc2c1 [Compound D010] | –
– | – | 3 | > 30 | COc1ccc2cc3c(N)nn(C(=O)c4cc(OC)c(OC)c(OC)c4)c3nc2c1 [Compound D012] | –
– | – | 92 | 2.4 | COc1ccc2cc3c(N)nn(C(=O)c4ccc(F)cc4Cl)c3nc2c1 [Compound D018] | –
– | – | 3 | > 30 | COc1ccc2cc3c(N)nn(C(=O)c4ccc([N+](=O)[O-])c(C)c4)c3nc2c1 [Compound D025] | –
– | – | 1 | > 30 | COc1ccc2cc3c(N)nn(C(=O)Cc4ccc([N+](=O)[O-])cc4)c3nc2c1 [Compound D035] | –
– | – | 11 | > 30 | COc1ccc2cc3c(N)nn(C(=O)c4ccc(Cl)c([N+](=O)[O-])c4)c3nc2c1 [Compound D036] | –
– | – | 100 | 1.7 | COc1ccc2cc3c(N)nn(C(=O)c4ccc([N+](=O)[O-])cc4Cl)c3nc2c1 [Compound D038] | –
– | – | 3 | > 30 | COc1ccc2cc3c(N)nn(C(=O)Cc4ccc([N+](=O)[O-])cc4)c3nc2c1 [Compound D086] | –
– | – | 11 | 18 | Cc1ccc2cc3c(N)nn(C(=O)c4ccc(F)cc4)c3nc2c1 [Compound D136] | –
– | – | 21 | 3.4 | COc1ccc2nc3c(cc2c1)c(N)nn3C(=O)c1ccc([N+](=O)[O-])cc1Cl [Compound D138] | –
